According to patent US20250241862A1, “EXOSOMAL COMPOSITIONS INCLUDING ANESTHETICS” (THE BOARD OF TRUSTEES OF THE UNIVERSITY OF ALABAMA, priority 2024, published 2025):
Where a name gives a salt, the structure may show the parent alone.

Tests used:
[1] = In vitro release of BUP by dialysis; type: physicochemical; conditions: dialysis 8-10 kD, 1×PBS pH 7.4, 37° C.; free BUP at 0.5% (w/v) and saturated concentrations
Experimental: To assess the release kinetics of BUP from the BUP@EXO, a dialysis method was employed. Specifically, 1 mL of BUP@EXO, containing 5 mg BUP, was introduced into a Spectra/Por Float-A-Lyzer G2 dialysis bag with a molecular weight cutoff ranging from 8-10 kD (Spectrum Laboratories, Ranchodominguez, CA). This bag was then immersed in 20 mL of phosphate-buffered saline (PBS) with a pH of 7.4. The setup was maintained at 37° C. and subjected to continuous 200 rpm shaking. At specified time points, the dialysis bag was relocated to fresh 1×PBS to ensure a consistent concentration gradient. The concentration of BUP in the dialysate was ascertained by measuring its absorbance at 272 nm and referencing it against a pre-established standard curve. We collected the washout solutions (filtrate) in the lower chambers of centrifugal filters. Subsequently, these solutions underwent UV-Vis spectroscopy to determine the BUP concentration. The encapsulation efficiency is thereby calculated by
We conducted in-depth in vitro drug release kinetic analysis at 37° C. for our BUP@EXO formulations. 1 mL of BUP@EXO in 1×PBS, containing 5 mg BUP, was introduced into a dialysis bag with a molecular weight cutoff ranging from 8-10 kD. The dialysis bag was then immersed in 20 mL of 1×PBS with a pH of 7.4. The setup was maintained at 37° C. and subjected to continuous shaking of 200 rpm. […]

[2] = system: sciatic nerve; assay: Rat sciatic nerve block, neurobehavioral test (hot plate thermal latency, weight bearing); type: in vivo; conditions: for nerve block at injected site (observation): single sciatic nerve injection 0.3 mL
Text: Adult male Sprague-Dawley rats (Charles River Laboratories, Wilmington, MA) weighing 250-350 g were housed in groups, in a 6 am-6 pm light-dark cycle. Animals were cared for in accordance with protocols approved by the Institutional Animal Care and Use Committee of the University of Alabama (Protocol ID: 19-11-2992), and the Guide for the Care and Use of Laboratory Animals of the US National Research Council.
Nerve block injections were meticulously executed utilizing a 23-gauge needle, with rats being anesthetized under a combination of isoflurane and oxygen. […] Additionally, injections of free BUP were given at doses of 0.75 mg and 1.5 mg. A control group received an injection of 50 μg of empty exosomes. The injection technique involved positioning the needle posteromedially to the greater trochanter and directing it anteromedially. Upon making contact with the bone, the prepared solution was administered.
Subsequently, the rats underwent neurobehavioral test to determine the duration of functional deficits (i.e., sensory and motor nerve blockade) in both hind paws. The duration of deficits on the injected side (left, ipsilateral) reflected the duration of nerve block. Any deficits observed on the uninjected side (right, contralateral) were indicative of the systemic BUP distribution.
The efficacy of the nerve block was assessed at specified intervals using established methodologies. Sequentially, the left and then the right hind paws of the rats were subjected to a 56° C. hot plate (model 39D Hot Plate Analgesia meter; IITC Inc., Woodland Hills, CA). The duration until the paw was withdrawn, termed thermal latency, was meticulously recorded. […] Thermal latency serves as an indicator of analgesic potency. […] For a systemic effect baseline, latency was also gauged in the non-injected leg. The duration of the thermal nociceptive block was determined as the time taken for the thermal latency to revert from an elevated value to a baseline of 7 seconds. In adult rats, this 7-second threshold represents the median between the maximum block and the typical thermal latency, which is roughly 2 seconds, with the upper limit being 12 seconds. Motor function was evaluated by suspending the animal over a balance and recording the maximum weight the animal could bear. The duration of motor blockade was determined as the period until weight-bearing capacity returned to half of its normal level from the point of maximal block. For each rat, the halfway point was calculated as [(highest weight borne by either leg)−(lowest weight borne by the blocked leg)]/2+the lowest weight borne by the blocked leg.

[3] = system: muscle at the injection site; assay: Muscle histology (H&E) inflammation and myotoxicity scoring; type: in vivo, rat
Text: Following euthanasia, the sciatic nerve and adjacent muscle tissues were meticulously extracted. Muscle specimens underwent processing to yield slides stained with hematoxylin and eosin. A macroscopic dissection score was assigned based on the following criteria: 0=tissue planes obvious and easily separated; 1=tissue planes obvious but separated with some difficulty; 2=tissue planes adherent and separated with some difficulty; 3=tissue planes completely obliterated, could not separate surrounding tissues from nerve without cutting through them. Muscle samples underwent evaluation for inflammation (on a scale of 0-4) and myotoxicity (on a scale of 0-6). The inflammation score was a subjective measure of its severity. The myotoxicity score was based on two hallmark features of local anesthetic-induced myotoxicity: nuclear internalization and regeneration. […] Regeneration manifests as contracted myocytes with basophilic cytoplasm. The scoring was as follows: 0=normal; 1=perifascicular internalization; 2=deep internalization (>5 cell layers), 3=perifascicular regeneration, 4=deep regeneration, 5=hemifascicular regeneration, 6=holofascicular regeneration.
The sciatic nerve and surrounding tissues were harvested, sectioned, and stained for histologic assessment. Muscle tissues were processed for hematoxylin-eosin (H&E) staining. The myotoxicity and inflammation were quantified using a previously reported scoring system (Table 1, Table 2).

[4] = system: sciatic nerve; assay: Sciatic nerve histology (toluidine blue) for neurotoxicity; type: in vivo, rat
Text: For nerve injury histology, samples underwent Epon-embedding and fixation using Karnovsky's KII Solution, which comprises 2.5% glutaraldehyde, 2.0% paraformaldehyde, and 0.025% calcium chloride in a 0.1 M sodium cacodylate buffer with a pH of 7.4. Subsequently, samples were post-fixed using osmium tetroxide, stained with uranyl acetate, and then dehydrated through a series of ethanol solutions. This was followed by infiltration with mixtures of propylene oxide and Epon. Sections, with a thickness of 0.5 μm, were then stained using toluidine blue, facilitating high-resolution light microscopy examination.
Epon-embedded sections of the sciatic nerve were stained with toluidine blue. […] Furthermore, when 2.5 mg free BUP was injected, 3 out of 4 tissues presented significant nerve degeneration, which is determined by the density decrease of nerve fibers within the nerve section (FIG. 6b).

[5] = system: Creatine Kinase (CK-total, CK-MB) activity in serum; assay: Serum creatine kinase activity (CK-total, CK-MB), cardiotoxicity; type: in vivo, rat; conditions: 48 hours after injection
Experimental: In another experiment, rats were euthanized at the 48-hour mark. Blood samples were meticulously collected through two methods: a cardiac puncture, which involves drawing blood directly from the heart, and a separate collection from the femoral artery. Once collected, the blood samples were subjected to centrifugation, a process that separates the serum from other blood components. The isolated serum was then analyzed for creatine kinase activity using a colorimetric assay kit for creatine kinase activity. The intensity was quantified using a plate-reader, an instrument that measures absorbance levels.
It is important to recognize that the side effects of BUP and other local anesthetics go beyond just localized tissue reactions. A major concern with administering BUP is its potential harmful cardiotoxic effects. This can be particularly severe in certain instances, such as arrhythmias and cardiac asystole. Cardiotoxicity can be observed through increased activity of Creatine Kinase(CK), an family of enzymes that is released into the blood in response to lesions in contractile fibers, serve as biochemical markers for muscle damage, including myocardial injury. Elevated activity levels of CK, especially its cardiomyocyte isoform—Creatine Kinase-Myocardial Band (CK-MB), can be a warning sign for serious outcomes such as cardiac arrhythmias, heart failure, and other cardiovascular complications.
Two types of samples were obtained: from the femoral artery and cardiac puncture. These samples were analyzed to evaluate the activity in serum of total CK (CK-total) and its cardiomyocyte isoform (CK-MB).

[6] = osmotic shock method; cited from earlier work

CCCCN1CCCCC1C(=O)Nc1c(C)cccc1C (stereo not shown) [free BUP, Bupivacaine Hydrochloride]
cumulative release within initial 5-hour period [1]: near-complete cumulative release
success rate of nerve blockade ([2]; 0.75 mg BUP equivalent): 0%
contralateral nerve blockade (systemic distribution) ([2]; 0.75 mg BUP equivalent, uninjected side): no contralateral nerve blockade
nerve block at injected site (observation) ([2]; 0.75 mg BUP in PBS): neither a detectable nerve block nor toxicity
duration of motor blockade ([2]; 1.5 mg BUP equivalent): 0.458 ± 0.176 h
duration of sensory nerve blockade ([2]; 1.5 mg BUP equivalent): 1.833 ± 0.250 h
contralateral nerve blockade (systemic distribution) ([2]; 1.5 mg BUP equivalent, uninjected side): no contralateral nerve blockade
nerve block at injected site (observation) ([2]; 1.5 mg BUP in PBS): successfully induced nerve block at the injected sites in all animals
occurrence of drowsiness ([2]; 2.5 mg BUP): 3 out of 4 animals
duration of motor blockade ([2]; 2.5 mg BUP equivalent): 2.12 ± 0.54 h
duration of sensory nerve blockade ([2]; 2.5 mg BUP equivalent): 2.75 ± 0.43 h
contralateral sensory nerve blockade (systemic distribution) ([2]; 2.5 mg BUP equivalent, uninjected side): 3 out of 4 animals
contralateral thermal latency ([2]; 2.5 mg BUP, uninjected side, 56° C. hot plate): ~7 s
myotoxicity score (scale 0-6) ([3]; 1.5 mg, 4 days, 1 of 4 rats): 2
inflammation score (out of 4) ([3]; 2.5 mg, 48 hours): up to 3
myotoxicity score (out of 6) ([3]; 2.5 mg, 48 hours): up to 3
tissues with signs of neurotoxicity ([4]; 1.5 mg, 48 hours): 1 out of 4
tissues with significant nerve degeneration ([4]; 2.5 mg): 3 out of 4
Creatine Kinase activity profiles (CK-total, CK-MB) vs blank control ([5]; 0.75 mg): did not result in significant alteration
CK activity vs blank control ([5]; 1.5 mg): considerable elevation in CK activity
CK activity vs blank control ([5]; 2.5 mg): considerable elevation in CK activity

CC(=O)CCCCn1c(=O)c2c(ncn2C)n(C)c1=O [pentoxifylline]
encapsulation efficiency (drug per protein-equivalent exosomes) [6]: 0.85 μg of drug per μg of protein-equivalent exosomes
